Source: patent US20250368633A1, “AZEPINE FUSED RING COMPOUND AS RIPK1 INHIBITOR AND USE THEREOF” (ARTIVILA BIOPHARMA, priority 2022, published 2025)

Each molecule was assayed on U937 cells (assay: EC50 of necroptosis inhibition in U937 cells (TSZ-induced, CellTiter-Glo)). Details: Homo sapiens, U-937; TSZ (hTNF-α, SM-164, Z-VAD-FMK) 20 hours; 10 concentration points; read-out: EC50 intervals of necroptosis inhibition in U937 cells.
Type: cell-based
In short: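 Luminescent ATP readout (CellTiter-Glo) after 20 h gave viability of TSZ-challenged U937 cells; compounds were added 15 min ahead of TNF-α/SM-164/Z-VAD-FMK. EC50 derived by variable-slope nonlinear regression of inhibition relative to no-TSZ and TSZ-alone controls.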
`CN1C(=O)[C@@H](NC(=O)C(=O)NCCc2ccccc2)COc2ccc(C#CCN3CCC(O)C3)cc21` (stereo partly drawn) [Example 46, N^1-((3S)-7-(3-(3-hydroxypyrrolidin-1-yl)prop-1-yn-1-yl)-5-methyl-4-oxo-2,3,4,5-tetrahydrobenzo[b][1,4]oxazepin-3-yl)-N^2-phenethyloxalamide] showed an EC50 of under 100 nM.
For `CN1C(=O)[C@@H](NC(=O)C(=O)NCCc2ccccc2)COc2ccc(C#CCN3CCOCC3)cc21` [Example 48, (S)—N^1-(5-methyl-7-(3-morpholinoprop-1-yn-1-yl)-4-oxo-2,3,4,5-tetrahydrobenzo[b][1,4]oxazepin-3-yl)-N^2-phenethyloxalamide], the EC50 was under 100 nM.
With `C[C@@H](CNC(=O)C(=O)N[C@H]1COc2ccc(C#CCCO)cc2N(C)C1=O)c1ccccc1` [Example 155, N^1-((S)-7-(4-hydroxybut-1-yn-1-yl)-5-methyl-4-oxo-2,3,4,5-tetrahydrobenzo[b][1,4]oxazepin-3-yl)-N^2-((R)-2-phenylpropyl)oxalamide] the EC50 was under 100 nM.
`CN1C(=O)[C@@H](NC(=O)C(=O)NCCc2ccccc2)COc2ccc(C#CCN3C(=O)CCC3=O)cc21` [Example 84, (S)—N^1-(7-(3-(2,5-dioxopyrrolidin-1-yl)prop-1-yn-1-yl)-5-methyl-4-oxo-2,3,4,5-tetrahydrobenzo[b][1,4]oxazepin-3-yl)-N^2-phenethyloxalamide] showed an EC50 of under 100 nM.
`CN1C(=O)[C@@H](NC(=O)C(=O)NCCc2ccc(F)cc2)COc2ccc(C#CCCO)cc21` [Example 35, (S)—N^1-(4-fluorophenethyl)-N^2-(7-(4-hydroxybut-1-yn-1-yl)-5-methyl-4-oxo-2,3,4,5-tetrahydrobenzo[b][1,4]oxazepin-3-yl)oxalamide] gave an EC50 of 100 to 500 nM.
Work on `C[C@@H](NC(=O)C(=O)N[C@H]1COc2ccc(C#CCN3CC[C@@H](O)C3)cc2N(C)C1=O)c1ccccc1` [Example 128, N^1-((S)-7-(3-((R)-3-hydroxypyrrolidin-1-yl)prop-1-yn-1-yl)-5-methyl-4-oxo-2,3,4,5-tetrahydrobenzo[b][1,4]oxazepin-3-yl)-N^2-((R)-1-phenylethyl)oxalamide] yielded an EC50 of under 100 nM.
For `CN1C(=O)[C@@H](NC(=O)C(=O)NCc2ccccc2)COc2ccc(C#CCN3CCNC(=O)C3)cc21` [Example 107, (S)—N^1-benzyl-N^2-(5-methyl-4-oxo-7-(3-(3-oxopiperazin-1-yl)prop-1-yn-1-yl)-2,3,4,5-tetrahydrobenzo[b][1,4]oxazepin-3-yl)oxalamide], the EC50 was under 100 nM.
For `CN1C(=O)C(NC(=O)C(=O)NCCc2cccc(F)c2)CCc2ccc(C#CCCO)cc21` (centres unmarked) [Example 167, N^1-(3-fluorophenethyl)-N^2-(8-(4-hydroxybut-1-yn-1-yl)-1-methyl-2-oxo-2,3,4,5-tetrahydro-1H-benzo[b]azepin-3-yl)oxalamide], the EC50 was under 100 nM.
`CN1C(=O)[C@@H](NC(=O)C(=O)NCCc2ccccc2)COc2ccc(C#CC3(O)CCCCC3)cc21` [Example 44, (S)—N^1-(7-((1-hydroxycyclohexyl)ethynyl)-5-methyl-4-oxo-2,3,4,5-tetrahydrobenzo[b][1,4]oxazepin-3-yl)-N^2-phenethyloxalamide] showed an EC50 of under 100 nM.
`COC1(C#Cc2ccc3c(c2)N(C)C(=O)[C@@H](NC(=O)C(=O)NCCc2ccccc2)CO3)COC1` [Example 78, (S)—N^1-(7-((3-methoxyoxetan-3-yl)ethynyl)-5-methyl-4-oxo-2,3,4,5-tetrahydrobenzo[b][1,4]oxazepin-3-yl)-N^2-phenethyloxalamide] was tested, and the EC50 was under 100 nM.
Molecule `CN1C(=O)C(NC(=O)C(=O)NCCc2ccccc2)CCc2ccc(Br)cc21` (centres unmarked) [Example 61, N^1-(8-bromo-1-methyl-2-oxo-2,3,4,5-tetrahydro-1H-benzo[b]azepin-3-yl)-N^2-phenethyloxalamide] has an EC50 of under 100 nM.
`CN1C(=O)[C@@H](NC(=O)C(=O)NCCc2cccc(F)c2)COc2ccc(C#CCN3C(=O)CCC3=O)cc21` [Example 122, (S)—N^1-(7-(3-(2,5-dioxopyrrolidin-1-yl)prop-1-yn-1-yl)-5-methyl-4-oxo-2,3,4,5-tetrahydrobenzo[b][1,4]oxazepin-3-yl)-N^2-(3-fluorophenethyl)oxalamide] showed an EC50 of under 100 nM.
For `CC(CNC(=O)C(=O)N[C@H]1COc2ccc(C#CCCO)cc2N(C)C1=O)c1ccccc1` (mixture of isomers) [Example 154, N^1-((S)-7-(4-hydroxybut-1-yn-1-yl)-5-methyl-4-oxo-2,3,4,5-tetrahydrobenzo[b][1,4]oxazepin-3-yl)-N^2-(2-phenylpropyl)oxalamide], the EC50 was under 100 nM.
With `C[C@@H](NC(=O)C(=O)N[C@H]1COc2ccc(C#CC3CCN(CC#N)CC3)cc2N(C)C1=O)c1ccccc1` [Example 137, N^1-((S)-7-((1-(cyanomethyl)piperidin-4-yl)ethynyl)-5-methyl-4-oxo-2,3,4,5-tetrahydrobenzo[b][1, 4]oxazepin-3-yl)-N^2-((R)-1-phenylethyl)oxalamide] the EC50 was under 100 nM.
Molecule `CN1C(=O)[C@@H](NC(=O)C(=O)NCCc2ccccc2)COc2ccc(C#CCCNS(C)(=O)=O)cc21` [Example 51, (S)—N^1-(5-methyl-7-(4-(methylsulfonamido)but-1-yn-1-yl)-4-oxo-2,3,4,5-tetrahydrobenzo[b][1,4]oxazepin-3-yl)-N^2-phenethyloxalamide] has an EC50 of under 100 nM.
`CN1C(=O)[C@@H](NC(=O)C(=O)NCCc2ccccc2)COc2ccc(C#CC3CCCNC3)cc21` (stereo partly drawn) [Example 24, N^1-((3S)-5-methyl-4-oxo-7-(piperidin-3-ylethynyl)-2,3,4,5-tetrahydrobenzo[b][1,4]oxazepin-3-yl)-N^2-phenethyloxalamide] showed an EC50 of under 100 nM.
`CN1C(=O)[C@@H](NC(=O)C(=O)NCCc2ccccc2)COc2ccc(C#CCN3CCC(O)CC3)cc21` [Example 81, (S)—N^1-(7-(3-(4-hydroxypiperidin-1-yl)prop-1-yn-1-yl)-5-methyl-4-oxo-2,3,4,5-tetrahydrobenzo[b][1,4]oxazepin-3-yl)-N^2-phenethyloxalamide] gave an EC50 of under 100 nM.
`CN1C(=O)[C@@H](NC(=O)C(=O)NCCc2cccc(F)c2)COc2ccc(C#CCN3CCNC(=O)C3)cc21` [Example 123, (S)—N^1-(3-fluorophenethyl)-N^2-(5-methyl-4-oxo-7-(3-(3-oxopiperazin-1-yl)prop-1-yn-1-yl)-2,3,4,5-tetrahydrobenzo[b][1,4]oxazepin-3-yl)oxalamide] showed an EC50 of under 100 nM.
Molecule `CCOC(=O)CCC#Cc1ccc2c(c1)N(C)C(=O)[C@@H](NC(=O)C(=O)NCCc1ccccc1)CO2` [Example 94, ethyl (S)-5-(5-methyl-4-oxo-3-(2-oxo-2-(phenethylamino)acetamido)-2,3,4,5-tetrahydrobenzo[b][1,4]oxazepin-7-yl) pent-4-ynoate] has an EC50 of 100 to 500 nM.
`CN1C(=O)[C@@H](NC(=O)C(=O)NCCc2ccccc2)COc2ccc(C#CCCO)cc21` [Example 31, (S)—N^1-(7-(4-hydroxybut-1-yn-1-yl)-5-methyl-4-oxo-2,3,4,5-tetrahydrobenzo[b][1,4]oxazepin-3-yl)-N^2-phenethyloxalamide] gave an EC50 of under 100 nM.
Molecule `CN1C(=O)[C@@H](NC(=O)C(=O)NCCc2ccccc2)COc2ccc(C#CC(C)(C)O)cc21` [Example 29, (S)—N^1-(7-(3-hydroxy-3-methylbut-1-yn-1-yl)-5-methyl-4-oxo-2,3,4,5-tetrahydrobenzo[b][1,4]oxazepin-3-yl)-N^2-phenethyloxalamide] has an EC50 of under 100 nM.
Work on `CN1C(=O)[C@@H](NC(=O)C(=O)NCCc2ccccc2)COc2ccc(C#CCN3CCNC(=O)C3)cc21` [Example 85, (S)—N^1-(5-methyl-4-oxo-7-(3-(3-oxopiperazin-1-yl)prop-1-yn-1-yl)-2,3,4,5-tetrahydrobenzo[b][1, 4]oxazepin-3-yl)-N^2-phenethyloxalamide] yielded an EC50 of under 100 nM.
`CN1C(=O)[C@@H](NC(=O)C(=O)NCCc2cccc(F)c2)COc2ccc(C#CCN3CCOCC3)cc21` [Example 120, (S)—N^1-(3-fluorophenethyl)-N^2-(5-methyl-7-(3-morpholinoprop-1-yn-1-yl)-4-oxo-2,3,4,5-tetrahydrobenzo[b][1,4]oxazepin-3-yl)oxalamide] gave an EC50 of under 100 nM.
Work on `COCC#Cc1ccc2c(c1)N(C)C(=O)[C@@H](NC(=O)C(=O)NCCc1ccccc1)CO2` [Example 52, (S)—N^1-(7-(3-methoxyprop-1-yn-1-yl)-5-methyl-4-oxo-2,3,4,5-tetrahydrobenzo[b][1,4]oxazepin-3-yl)-N^2-phenethyloxalamide] yielded an EC50 of under 100 nM.
For `CC(Cc1ccccc1)NC(=O)C(=O)N[C@H]1COc2ccc(C#CCCO)cc2N(C)C1=O` (mixture of isomers) [Example 37, N^1-((S)-7-(4-hydroxybut-1-yn-1-yl)-5-methyl-4-oxo-2,3,4,5-tetrahydrobenzo[b][1,4]oxazepin-3-yl)-N^2-(1-phenylpropan-2-yl)oxalamide], the EC50 was 100 to 500 nM.
In the case of `CN1C(=O)[C@@H](NC(=O)C(=O)NCCc2ccccc2)COc2ccc(C#CC3(O)CN(C=O)C3)cc21` [Example 92, (S)—N^1-(7-((1-formyl-3-hydroxyazetidin-3-yl)ethynyl)-5-methyl-4-oxo-2,3,4,5-tetrahydrobenzo[b][1,4]oxazepin-3-yl)-N^2-phenethyloxalamide], the EC50 is reported as under 100 nM.
In the case of `C[C@@H](NC(=O)C(=O)N[C@H]1COc2ccc(C#CCN3CCOCC3)cc2N(C)C1=O)c1ccccc1` [Example 140, N^1-((S)-5-methyl-7-(3-morpholinoprop-1-yn-1-yl)-4-oxo-2,3,4,5-tetrahydrobenzo[b][1,4]oxazepin-3-yl)-N^2-((R)-1-phenylethyl)oxalamide], the EC50 is reported as under 100 nM.
For `CN1C(=O)[C@@H](NC(=O)C(=O)NCCc2ccccc2)COc2ccc(C#CC3CCN(CC#N)CC3)cc21` [Example 74, (S)—N^1-(7-((1-(cyanomethyl)piperidin-4-yl)ethynyl)-5-methyl-4-oxo-2,3,4,5-tetrahydrobenzo[b][1, 4]oxazepin-3-yl)-N^2-phenethyloxalamide], the EC50 was under 100 nM.
With `CN1C(=O)[C@@H](NC(=O)C(=O)NCCc2cccc(F)c2)COc2ccc(C#CC(C)(C)O)cc21` [Example 42, (S)—N^1-(3-fluorophenethyl)-N^2-(7-(3-hydroxy-3-methylbut-1-yn-1-yl)-5-methyl-4-oxo-2,3,4,5-tetrahydrobenzo[b][1,4]oxazepin-3-yl)oxalamide] the EC50 was under 100 nM.
